# Measurements from patent US10383861B2, “3-(1H-pyrrolo[2,3-C]pyridin-2-yl)-1H-pyrazolo[3,4-C]pyridines and therapeutic uses thereof” (Samumed, LLC, priority 2015, dated 2019).
# Tests used:
# Type in all cases: cell-based
# [1] = test system: SW480 colon cancer cells; assay: Cell viability assay (CellTiter-Blue) in SW480 colon cancer cells; details: Homo sapiens; for EC50: 96 h, SW480 cell viability, four days, CellTiter-Blue; for inhibition at 10 µM: SW480, read-out: percent inhibition at 10 μM
# Description: Representative compounds were screened using the following assay procedure to assess the effect on cell viability as described below.
# Approximately 2×10^3 SW480 colon cancer cells were seeded into each well and allowed to incubate in the presence or absence of compound for four days at 37° C./5% CO2. Eight replicates of DMSO-treated cells served as controls and cells treated with compound were performed in duplicate.
# After incubation, 20 μL of CellTiter-Blue (Promega) was added to each well allowed to incubate for approximately 3 hours. This reagent was a buffered solution which contains resazurin, metabolically active cells were able to reduce rezarurin (blue) into resorufin (pink) which was highly fluorescent. This measured fluorescence was used as a readout for cell viability.
# [2] = test system: primary human mesenchymal stem cells (hMSCs); assay: Induction of chondrogenesis in hMSCs (nodule count, Rhodamine B/Nile Red); details: 6 days; for EC50: concentration required to induce 50% levels of chondrogenesis vs TGF-β3, read-out: Conc (nM) of 50% TGF-β3 activity; for Emax: relative to TGF-β3 (10 ng/mL) positive control, read-out: Max. Activity as % TGF-β3 activity
# Description: Representative compounds were screened using primary human mesenchymal stem cells (hMSCs) to determine their ability to induce chondrogenesis (process by which cartilage is developed).
# Primary human mesenchymal stem cells (hMSCs) were purchased from Lonza (Walkersville, Md.) and expanded in Mesenchymal Stem Cell Growth Media (Lonza). Cells between passage 3 and 6 were used for the experiments.
# To image chondrogenic nodules, the cells were fixed using 4% formaldehyde (Electron Microscopy Sciences), and stained with 2 μg/mL Rhodamine B (Sigma-Aldrich) and 20 μM Nile Red (Sigma-Aldrich) [Johnson K., et.al, A Stem Cell-Based Approach to Cartilage Repair, Science, (2012). […] Number of nodules in each well was normalized to the average of 3 DMSO treated wells on the same plate using Excel (Microsoft Inc.). The normalized averages (fold change over DMSO) of 3 replicate wells for each compound concentration were calculated. Due to solubility limitations of some of the compounds, curve fitting was incomplete leading to inaccurate EC50 determinations.
# Using TGF-β3 as a positive control, the concentration of representative compounds required to induce 50% levels of chondrogenesis is reported. In addition, the maximum activity of each compound and the respective dose that each compound reached maximum chondrogenesis activity is reported.
# [3] = test system: IL-6; assay: IL-6 inhibition in LPS-stimulated THP-1 cells (HTRF); details: Homo sapiens; for inhibition at 10 µM: THP-1, read-out: percent inhibition at 10 μM; for EC50: THP-1 cells, LPS 500 ng/mL, 22 hours, IL6 HTRF
# Description: THP-1 cells were cultured in basal media with 1% FBS for 24 hours before the start of the assay. […] THP-1 cells were plated at 5000 cells/well in the 384-well plates and incubated at 37° C. for 2 h. 500 ng/mL of LPS was added after 2 hours and cells were incubated for another 22 hours at 37° C. Plates were spun in a centrifuge for 1 minute at […] and a mixture of anti-IL6 XL665, and anti-IL6 Cryptate diluted in reconstitution buffer (Cisbio Inc.) was added to each well. Following incubation for 3 hrs at room temperature, Homogeneous Time-Resolved Fluorescence (HTRF) was measured using the Envision (Perkin Elmer) at 665 nm and […]. The ratio of fluorescence at 665 nm to 620 nm was used as a readout for IL6 quantification. All samples were processed in duplicate. Readings were normalized to DMSO treated cells and normalized activities were utilized for EC50 calculations using the dose-response log (inhibitor) vs. response -variable slope (four parameters) nonlinear regression feature available in GraphPad Prism 5.0 (or Dotmatics).
# [4] = test system: Wnt activity; assay: Wnt activity screening assay, Sp5-Luc reporter gene in SW480 cells; details: Homo sapiens; for EC50: Sp5-Luc reporter, SW480 cells, overnight incubation; for inhibition at 10 µM: SW480, read-out: percent inhibition at 10 μM
# Description: The screening assay for Wnt activity is described as follows. Reporter cell lines can be generated by stably transducing cancer cell lines (e.g., colon cancer) or primary cells (e.g., IEC-6 intestinal cells) with a lentiviral construct that includes a Wnt-responsive promoter driving expression of the firefly luciferase gene.
# SW480 colon carcinoma cells were transduced with a lentiviral vector expressing luciferase with a human Sp5 promoter consisting of a sequence of eight TCF/LEF binding sites. SW480 cells stably expressing the Sp5-Luc reporter gene and a hygromycin resistance gene were selected by treatment with 150 μg/mL of hygromycin for 7 days. These stably transduced SW480 cells were expanded in cell culture and used for all further screening activities. […] For Sp5-Luc reporter gene assays, the cells were plated at 4,000 cells/well in 384-well plates with medium containing 1% fetal bovine serum and incubated overnight at 37° C. and 5% CO2. Following incubation, 20 μl of BrightGlo luminescence reagent (Promega) was added to each well of the 384-well assay plates. The plates were placed on an orbital shaker for 2 min and then luminescence was quantified using the Envision (Perkin Elmer) plate reader. Readings were normalized to DMSO only treated cells, and normalized activities were utilized for EC50 calculations using the dose-response log (inhibitor) vs. response -variable slope (four parameters) nonlinear regression feature available in GraphPad Prism 5.0 (or Dotmatics).
# [5] = test system: primary human fibroblasts derived from IPF patients (LL29 cells); assay: Inhibition of the fibrotic process: αSMA staining in TGF-β1 treated LL29 fibroblasts; details: Fibroblast; for EC50: 96 h, LL29 cells, TGF-β1 20 ng/mL, 4 days, % αSMA positive cells; for inhibition at 10 µM: read-out: percent inhibition at 10 μM
# Description: Representative compounds were screened using primary human fibroblasts (derived from IPF patients) treated with TGF-β1 to determine their ability to inhibit the fibrotic process.
# LL29 cells are plated at 1,500 cells/well in 80 μL/well F12 medium supplemented with 1% Fetal Bovine Serum. […] Wells treated with TGF-β1 and containing DMSO were used as controls. […] Following incubation for 4 days, SYTOX green nucleic acid stain (Life Technologies [Thermo Fisher Scientific]) was added to the wells at a final concentration of 1 μM and incubated at room temperature for 30 min.
SMILES,EC50 [1] [µM],EC50 [2] [nM],Emax [2] [%],inhibition at 10 µM [3] [%],EC50 [3] [µM],EC50 [4] [µM],EC50 [5] [µM],inhibition at 10 µM [1] [%],inhibition at 10 µM [5] [%],inhibition at 10 µM [4] [%]
"Fc1cccc(-c2cncc3[nH]c(-c4n[nH]c5cnc(-c6cccnc6)cc45)cc23)c1 [Compound 4, 3-(4-(3-Fluorophenyl)-1H-pyrrolo[2,3-c]pyridin-2-yl)-5-(pyridin-3-yl)-1H-pyrazolo[3,4-c]pyridine]",0.734,2700,64,26.8,> 10,0.89,0.211,,,
"CC(C)C(=O)Nc1cncc(-c2cc3c(-c4cc5c(-c6cccc(F)c6)cncc5[nH]4)n[nH]c3cn2)c1 [Compound 9, N-(5-(3-(4-(3-Fluorophenyl)-1H-pyrrolo[2,3-c]pyridin-2-yl)-1H-pyrazolo[3,4-c]pyridin-5-yl)pyridin-3-yl)isobutyramide]",4.34,,42,,8.26,1.81,1.79,,,
"Fc1cccc(-c2cncc3[nH]c(-c4n[nH]c5cnc(-c6cncc(CN7CCCC7)c6)cc45)cc23)c1 [Compound 14, 3-(4-(3-Fluorophenyl)-1H-pyrrolo[2,3-c]pyridin-2-yl)-5-(5-(pyrrolidin-1-ylmethyl)pyridin-3-yl)-1H-pyrazolo[3,4-c]pyridine]",5.69,100,81,48.2,> 10,3.97,3.54,,,
"Fc1cccc(-c2cncc3[nH]c(-c4n[nH]c5cnc(-c6cncnc6)cc45)cc23)c1 [Compound 27, 3-(4-(3-Fluorophenyl)-1H-pyrrolo[2,3-c]pyridin-2-yl)-5-(pyrimidin-5-yl)-1H-pyrazolo[3,4-c]pyridine]",1.1,10,56,,3.06,0.584,0.432,,,
"Fc1ccc(-c2cncc3[nH]c(-c4n[nH]c5cnc(-c6cncc(CN7CCC(F)(F)C7)c6)cc45)cc23)cc1 [Compound 54, 5-(5-((3,3-Difluoropyrrolidin-1-yl)methyl)pyridin-3-yl)-3-(4-(4-fluorophenyl)-1H-pyrrolo[2,3-c]pyridin-2-yl)-1H-pyrazolo[3,4-c]pyridine]",> 10,100,78,11.2,> 10,3.26,9.98,38.6,,
"Fc1ccc(-c2cncc3[nH]c(-c4n[nH]c5cnc(-c6cncnc6)cc45)cc23)cc1 [Compound 55, 3-(4-(4-Fluorophenyl)-1H-pyrrolo[2,3-c]pyridin-2-yl)-5-(pyrimidin-5-yl)-1H-pyrazolo[3,4-c]pyridine]",0.264,900,81,,0.975,0.555,> 10,,56.4,
"Nc1cncc(-c2cc3c(-c4cc5c(-c6ccccc6F)cncc5[nH]4)n[nH]c3cn2)c1 [Compound 59, 5-(3-(4-(2-Fluorophenyl)-1H-pyrrolo[2,3-c]pyridin-2-yl)-1H-pyrazolo[3,4-c]pyridin-5-yl)pyridin-3-amine]",3.4,,16,,3.61,1.63,1.77,,,
"CCNCc1cncc(-c2cc3c(-c4cc5c(-c6ccccc6F)cncc5[nH]4)n[nH]c3cn2)c1 [Compound 62, N-((5-(3-(4-(2-Fluorophenyl)-1H-pyrrolo[2,3-c]pyridin-2-yl)-1H-pyrazolo[3,4-c]pyridin-5-yl)pyridin-3-yl)methyl)ethanamine]",> 10,,21,,3.66,9.13,2.64,44.4,,
"CN(C)Cc1cncc(-c2cc3c(-c4cc5c(-c6ccccc6F)cncc5[nH]4)n[nH]c3cn2)c1 [Compound 69, 1-(5-(3-(4-(2-Fluorophenyl)-1H-pyrrolo[2,3-c]pyridin-2-yl)-1H-pyrazolo[3,4-c]pyridin-5-yl)pyridin-3-yl)-N,N-dimethylmethanamine]",6.31,2700,54,24.7,> 10,> 10,9.72,,,49.2
"c1cncc(-c2cc3c(-c4cc5c(-c6cccnc6)cncc5[nH]4)n[nH]c3cn2)c1 [Compound 88, 5-(Pyridin-3-yl)-3-(4-(pyridin-3-yl)-1H-pyrrolo[2,3-c]pyridin-2-yl)-1H-pyrazolo[3,4-c]pyridine]",> 10,100,76,36.6,> 10,1.34,> 10,37.4,82.9,
"CCNCc1cncc(-c2cc3c(-c4cc5c(-c6cccnc6)cncc5[nH]4)n[nH]c3cn2)c1 [Compound 90, N-((5-(3-(4-(Pyridin-3-yl)-1H-pyrrolo[2,3-c]pyridin-2-yl)-1H-pyrazolo[3,4-c]pyridin-5-yl)pyridin-3-yl)methyl)ethanamine]",> 10,10,68,,1.06,3.73,> 10,13,0,
"FC1(F)CCN(Cc2cncc(-c3cc4c(-c5cc6c(-c7cccnc7)cncc6[nH]5)n[nH]c4cn3)c2)C1 [Compound 110, 5-(5-((3,3-Difluoropyrrolidin-1-yl)methyl)pyridin-3-yl)-3-(4-(pyridin-3-yl)-1H-pyrrolo[2,3-c]pyridin-2-yl)-1H-pyrazolo[3,4-c]pyridine]",2.14,2700,54,,0.688,0.914,0.534,,,
"Nc1cncc(-c2cc3c(-c4cc5c(-c6ccncc6)cncc5[nH]4)n[nH]c3cn2)c1 [Compound 115, 5-(3-(4-(Pyridin-4-yl)-1H-pyrrolo[2,3-c]pyridin-2-yl)-1H-pyrazolo[3,4-c]pyridin-5-yl)pyridin-3-amine]",> 10,10,52,4.3,> 10,> 10,3.74,22,,14.2
